Reference: PMC6009956, “Design, synthesis and biological activity of N^4-phenylsubstituted-7H-pyrrolo[2,3-d]pyrimidin-4-amines as dual inhibitors of aurora kinase A and epidermal growth factor receptor kinase” (Journal of Enzyme Inhibition and Medicinal Chemistry, 2017)
Where two headings read alike, the source gives them in different places.

Tests used:
aurora A kinase (AURKA) = target: T1, aurora A kinase (AURKA) (Homo sapiens, UniProt O14965); assay: ADP-Glo kinase assay, Aurora A; type: biochemical
T1 construct: purchased BPS Bioscience (assay run externally by the vendor)
T1 sequence (O14965 1-403): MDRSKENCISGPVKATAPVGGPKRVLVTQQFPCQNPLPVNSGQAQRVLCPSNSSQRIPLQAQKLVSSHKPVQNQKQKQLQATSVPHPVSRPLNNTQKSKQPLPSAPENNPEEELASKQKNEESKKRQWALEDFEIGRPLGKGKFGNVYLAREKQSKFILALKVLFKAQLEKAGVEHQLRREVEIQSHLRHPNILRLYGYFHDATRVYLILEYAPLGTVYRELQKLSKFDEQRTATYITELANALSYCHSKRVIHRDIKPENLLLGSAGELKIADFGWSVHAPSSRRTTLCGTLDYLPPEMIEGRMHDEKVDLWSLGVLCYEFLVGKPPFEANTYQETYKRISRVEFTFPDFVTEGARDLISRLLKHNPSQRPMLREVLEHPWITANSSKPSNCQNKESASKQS

EGFR = EGFR (Homo sapiens, UniProt P00533); assay: ADP-Glo kinase assay, EGFR; type: biochemical; design: purchased BPS Bioscience (assay run externally by the vendor)
EGFR, sequence (P00533 25-1210): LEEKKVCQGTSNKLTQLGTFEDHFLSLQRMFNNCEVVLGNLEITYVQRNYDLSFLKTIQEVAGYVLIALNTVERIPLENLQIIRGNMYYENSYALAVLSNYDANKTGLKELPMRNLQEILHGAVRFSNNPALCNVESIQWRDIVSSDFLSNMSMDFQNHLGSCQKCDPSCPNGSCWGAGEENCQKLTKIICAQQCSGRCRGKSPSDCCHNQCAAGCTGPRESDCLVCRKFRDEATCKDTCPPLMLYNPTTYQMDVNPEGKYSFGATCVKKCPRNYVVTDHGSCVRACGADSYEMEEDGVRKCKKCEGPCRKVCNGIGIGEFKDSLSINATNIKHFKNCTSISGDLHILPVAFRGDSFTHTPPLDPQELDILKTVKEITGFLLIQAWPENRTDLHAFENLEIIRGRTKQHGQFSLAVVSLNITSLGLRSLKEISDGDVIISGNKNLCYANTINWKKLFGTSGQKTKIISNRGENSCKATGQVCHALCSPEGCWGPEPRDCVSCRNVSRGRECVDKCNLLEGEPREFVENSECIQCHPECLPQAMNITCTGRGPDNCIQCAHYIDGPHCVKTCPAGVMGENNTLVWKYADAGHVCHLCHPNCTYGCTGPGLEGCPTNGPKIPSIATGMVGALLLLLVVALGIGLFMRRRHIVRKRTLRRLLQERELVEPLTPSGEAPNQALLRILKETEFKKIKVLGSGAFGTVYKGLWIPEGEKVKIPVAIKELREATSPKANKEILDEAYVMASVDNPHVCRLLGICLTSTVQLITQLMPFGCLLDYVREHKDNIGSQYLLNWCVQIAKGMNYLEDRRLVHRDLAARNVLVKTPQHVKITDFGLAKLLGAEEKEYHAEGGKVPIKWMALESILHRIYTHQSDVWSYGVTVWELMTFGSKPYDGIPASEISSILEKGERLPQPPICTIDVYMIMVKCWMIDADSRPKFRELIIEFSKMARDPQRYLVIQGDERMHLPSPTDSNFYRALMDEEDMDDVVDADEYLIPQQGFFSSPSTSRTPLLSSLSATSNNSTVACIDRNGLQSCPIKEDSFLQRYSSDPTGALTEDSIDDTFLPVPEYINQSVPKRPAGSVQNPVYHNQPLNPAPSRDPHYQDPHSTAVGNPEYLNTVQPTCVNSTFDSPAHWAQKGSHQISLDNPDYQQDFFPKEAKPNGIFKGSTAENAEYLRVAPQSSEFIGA

**Q.** Which results are given for Clc1cccc(Nc2ncnc3[nH]ccc23)c1 [Compound 11, N^4-(3-chlorophenyl)-7H-pyrrolo[2,3-d]pyrimidin-4-amine]?
**A.** IC50 (aurora A kinase (AURKA); 10 µM ATP, triplicate, read-out: AURKA IC50 ± SD): 3130 ± 750 nM; IC50 (aurora A kinase (AURKA); 10 µM ATP/0.2 mg/ml Kemptide, read-out: Aurora A IC50 (dose-response curve, supplement)): 3100 nM; Aurora A % Activity Set1 (aurora A kinase (AURKA); Log[nM] 0): 99%; Aurora A % Activity Set2 (aurora A kinase (AURKA); Log[nM] 0): 100%; Aurora A % Activity Set3 (aurora A kinase (AURKA); Log[nM] 0): 90%; Aurora A % Activity Set1 (aurora A kinase (AURKA); Log[nM] 1.0): 109%; Aurora A % Activity Set2 (aurora A kinase (AURKA); Log[nM] 1.0): 95%; Aurora A % Activity Set3 (aurora A kinase (AURKA); Log[nM] 1.0): 101%; Aurora A % Activity Set1 (aurora A kinase (AURKA); Log[nM] 1.5): 102%; Aurora A % Activity Set2 (aurora A kinase (AURKA); Log[nM] 1.5): 108%; Aurora A % Activity Set3 (aurora A kinase (AURKA); Log[nM] 1.5): 96%; Aurora A % Activity Set1 (aurora A kinase (AURKA); Log[nM] 2.0): 94%; Aurora A % Activity Set2 (aurora A kinase (AURKA); Log[nM] 2.0): 104%; Aurora A % Activity Set3 (aurora A kinase (AURKA); Log[nM] 2.0): 107%; Aurora A % Activity Set1 (aurora A kinase (AURKA); Log[nM] 2.5): 95%; Aurora A % Activity Set2 (aurora A kinase (AURKA); Log[nM] 2.5): 98%; Aurora A % Activity Set3 (aurora A kinase (AURKA); Log[nM] 2.5): 99%; Aurora A % Activity Set1 (aurora A kinase (AURKA); Log[nM] 3.0): 80%; Aurora A % Activity Set2 (aurora A kinase (AURKA); Log[nM] 3.0): 85%; Aurora A % Activity Set3 (aurora A kinase (AURKA); Log[nM] 3.0): 84%; Aurora A % Activity Set1 (aurora A kinase (AURKA); Log[nM] 3.5): 42%; Aurora A % Activity Set2 (aurora A kinase (AURKA); Log[nM] 3.5): 48%; Aurora A % Activity Set3 (aurora A kinase (AURKA); Log[nM] 3.5): 49%; Aurora A % Activity Set1 (aurora A kinase (AURKA); Log[nM] 4.0): 19%; Aurora A % Activity Set2 (aurora A kinase (AURKA); Log[nM] 4.0): 22%; Aurora A % Activity Set3 (aurora A kinase (AURKA); Log[nM] 4.0): 19%; Aurora A % Activity Set1 (aurora A kinase (AURKA); Log[nM] 4.5): 8%; Aurora A % Activity Set2 (aurora A kinase (AURKA); Log[nM] 4.5): 9%; Aurora A % Activity Set3 (aurora A kinase (AURKA); Log[nM] 4.5): 8%; Aurora A % Activity Set1 (aurora A kinase (AURKA); Log[nM] 5.0): 5%; Aurora A % Activity Set2 (aurora A kinase (AURKA); Log[nM] 5.0): 4%; Aurora A % Activity Set3 (aurora A kinase (AURKA); Log[nM] 5.0): 3%; EGFR inhibition (in words) (EGFR): single-digit nanomolar EGFR inhibition; IC50 (EGFR; 10 µM ATP, triplicate, read-out: EGFR IC50 ± SD): 6.63 ± 0.98 nM; IC50 (EGFR; 10 µM ATP/0.2 mg/ml Poly-Glu-Tyr, read-out: EGFR IC50 (dose-response curve, supplement)): 6.5 nM; EGFR % Activity Set1 (EGFR; Log[nM] 0): 66%; EGFR % Activity Set2 (EGFR; Log[nM] 0): 62%; EGFR % Activity Set3 (EGFR; Log[nM] 0): 63%; EGFR % Activity Set1 (EGFR; Log[nM] 1.0): 36%; EGFR % Activity Set2 (EGFR; Log[nM] 1.0): 34%; EGFR % Activity Set3 (EGFR; Log[nM] 1.0): 39%; EGFR % Activity Set1 (EGFR; Log[nM] 1.5): 17%; EGFR % Activity Set2 (EGFR; Log[nM] 1.5): 16%; EGFR % Activity Set3 (EGFR; Log[nM] 1.5): 20%; EGFR % Activity Set1 (EGFR; Log[nM] 2.0): 8%; EGFR % Activity Set2 (EGFR; Log[nM] 2.0): 7%; EGFR % Activity Set3 (EGFR; Log[nM] 2.0): 11%; EGFR % Activity Set1 (EGFR; Log[nM] 2.5): 6%; EGFR % Activity Set2 (EGFR; Log[nM] 2.5): 4%; EGFR % Activity Set3 (EGFR; Log[nM] 2.5): 6%; EGFR % Activity Set1 (EGFR; Log[nM] 3.0): 3%; EGFR % Activity Set2 (EGFR; Log[nM] 3.0): 1%; EGFR % Activity Set3 (EGFR; Log[nM] 3.0): 2%; EGFR % Activity Set1 (EGFR; Log[nM] 3.5): 2%; EGFR % Activity Set2 (EGFR; Log[nM] 3.5): 0%; EGFR % Activity Set3 (EGFR; Log[nM] 3.5): 0%; EGFR % Activity Set1 (EGFR; Log[nM] 4.0): 1%; EGFR % Activity Set2 (EGFR; Log[nM] 4.0): 0%; EGFR % Activity Set3 (EGFR; Log[nM] 4.0): 0%; EGFR % Activity Set1 (EGFR; Log[nM] 4.5): 0%; EGFR % Activity Set2 (EGFR; Log[nM] 4.5): 0%; EGFR % Activity Set3 (EGFR; Log[nM] 4.5): 0%; EGFR % Activity Set1 (EGFR; Log[nM] 5.0): 0%; EGFR % Activity Set2 (EGFR; Log[nM] 5.0): 0%; EGFR % Activity Set3 (EGFR; Log[nM] 5.0): 0%
